Laboratory results: patent publication US20240382482A1, “PLASMA KALLIKREIN INHIBITORS” (TAKEDA PHARMACEUTICAL COMPANY LIMITED, priority 2021, published 2024)

target: human activated kallikrein enzyme (Homo sapiens, UniProt P03952); assay: Inhibition of human activated kallikrein enzyme, fluorogenic peptide substrate assay (500 pM enzyme format); format: biochemical; conditions: 500 pM activated kallikrein, 300 μM PFR-AMC substrate, 30 min preincubation, 10 min reaction, room temperature; read-out: Primary Dose Response Assay: Average EC50
Sequence (P03952 391-638 limits assumed): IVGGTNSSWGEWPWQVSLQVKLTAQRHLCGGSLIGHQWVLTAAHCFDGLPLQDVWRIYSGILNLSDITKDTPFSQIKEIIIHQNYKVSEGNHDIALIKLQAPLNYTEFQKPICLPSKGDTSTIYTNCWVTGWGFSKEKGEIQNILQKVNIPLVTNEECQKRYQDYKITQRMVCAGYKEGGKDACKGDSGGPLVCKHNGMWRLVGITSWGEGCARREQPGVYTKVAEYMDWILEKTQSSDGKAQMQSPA
Sequence (P03952 20-390 partner limits assumed): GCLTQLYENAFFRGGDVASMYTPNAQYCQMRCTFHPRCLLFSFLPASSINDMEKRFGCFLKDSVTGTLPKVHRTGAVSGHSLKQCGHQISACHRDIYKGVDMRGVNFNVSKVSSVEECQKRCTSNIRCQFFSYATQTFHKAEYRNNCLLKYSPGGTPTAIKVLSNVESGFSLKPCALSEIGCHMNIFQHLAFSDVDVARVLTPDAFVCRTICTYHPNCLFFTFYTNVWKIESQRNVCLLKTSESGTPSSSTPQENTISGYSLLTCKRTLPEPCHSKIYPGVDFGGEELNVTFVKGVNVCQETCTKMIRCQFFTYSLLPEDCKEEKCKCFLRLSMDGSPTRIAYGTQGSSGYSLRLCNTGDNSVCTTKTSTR
Method: Compounds were evaluated for inhibition of the human activated kallikrein enzyme in two formats of an assay employing a fluorogenic peptide substrate. In one assay format, the concentrations of reagents were as follows: 20 mM Tris pH 7.5, 1 mM EDTA, 150 mM sodium chloride, 0.1% PEG-400, 0.1% Triton X-100, 500 pM activated kallikrein enzyme, 300 μM Pro-Phe-Arg-7-amido-4-methylcoumarin (PFR-AMC) substrate. Prior to reaction initiation with substrate, enzyme and inhibitors were preincubated for 30 min at room temperature. After initiation with substrate, reactions were incubated for 10 min at room temperature and fluorescence emission at 460 nm from 380 nm excitation measured with a microplate reader. In another assay format, the concentrations of reagents were as follows: 20 mM Tris pH 7.5, 1 mM EDTA, 150 mM sodium chloride, 0.1% PEG-400, 0.1% Triton X-100, 5 pM activated kallikrein enzyme, 300 uM PFR-AMC substrate. Prior to reaction initiation with substrate, enzyme and inhibitors were preincubated for 30 min at room temperature. After initiation with substrate, reactions were incubated for 18 hr at room temperature and fluorescence emission at 460 nm from 380 nm excitation measured with a microplate reader.
Table 1 provides the results of the assay in the format with 500 pM activated kallikrein assay. For the compounds listed in Table 1, the EC50 values are reported according to the following ranges: A≤5.0 nM; 5.0 nM<B≤50 nM; 50 nM<C≤500 nM; 500 nM<D≤9000 nM; 9000 nM<E.

Structure (SMILES) | EC50
COc1ccc(N)c(CC(=O)Nc2cc(NCc3cn4cc(C5CC5)ccc4n3)ncn2)c1F [Example 36, 2-(6-amino-2-fluoro-3-methoxyphenyl)-N-(6-(((6-cyclopropylimidazo[1,2-a]pyridin-2-yl)methyl)amino)pyrimidin-4-yl)acetamide] | 500 to 9000 nM
O=C(Nc1cc(NCc2cn3cc(C4CC4)ccc3n2)ccn1)C1CCc2ccc(Cl)cc2C1 (stereo not shown) [Example 120, 7-chloro-N-(4-(((6-cyclopropylimidazo[1,2-a]pyridin-2-yl)methyl)amino)pyridin-2-yl)-1,2,3,4-tetrahydronaphthalene-2-carboxamide] | 500 to 9000 nM
O=C(Cc1ncn2ccc(Cl)cc12)Nc1cc(C(=O)c2cn3cc(C4CC4)ccc3n2)ncn1 [Example 58, 2-(7-chloroimidazo[1,5-a]pyridin-1-yl)-N-(6-(6-cyclopropylimidazo[1,2-a]pyridine-2-carbonyl)pyrimidin-4-yl)acetamide] | 500 to 9000 nM
CC(Cc1cccc(Cl)c1)C(=O)Nc1cc(NCc2cn3cc(C4CC4)ccc3n2)ncn1 (stereo not shown) [Example 7, 3-(3-chlorophenyl)-N-(6-(((6-cyclopropylimidazo[1,2-a]pyridin-2-yl)methyl)amino)pyrimidin-4-yl)-2-methylpropanamide] | 500 to 9000 nM
O=C(Cc1ncn2ccc(Cl)cc12)Nc1cc(NCc2cn3cc(C4CC4)ccc3n2)ccn1 [Example 25, 2-(7-chloroimidazo[1,5-a]pyridin-1-yl)-N-(4-(((6-cyclopropylimidazo[1,2-a]pyridin-2-yl)methyl)amino)pyridin-2-yl)acetamide] | ≤ 5 nM
CCOC(=O)CCc1nc(NCc2c(C)cc(C(=N)NC(=O)OCC)cc2C)cc(OCc2cn3cc(C4CC4)ccc3n2)n1 [Example 77, ethyl 3-(4-((6-cyclopropylimidazo[1,2-a]pyridin-2-yl)methoxy)-6-((4-(N-(ethoxycarbonyl)carbamimidoyl)-2,6-dimethylbenzyl)amino)pyrimidin-2-yl)propanoate] | 5 to 50 nM
O=C(O)CCc1cc(C2CC2)cn2cc(CNc3cc(NC(=O)Cc4ncn5ccc(Cl)cc45)ncn3)nc12 [Example 39, 3-(2-(((6-(2-(7-chloroimidazo[1,5-a]pyridin-1-yl)acetamido)pyrimidin-4-yl)amino)methyl)-6-cyclopropylimidazo[1,2-a]pyridin-8-yl)propanoic acid] | ≤ 5 nM
COC(C(=O)Nc1cc(NCc2cn3cc(C4CC4)ccc3n2)ncn1)c1ncn2ccc(Cl)cc12 (stereo not shown) [Example 6, 2-(7-chloroimidazo[1,5-a]pyridin-1-yl)-N-(6-(((6-cyclopropylimidazo[1,2-a]pyridin-2-yl)methyl)amino)pyrimidin-4-yl)-2-methoxyacetamide] | 50 to 500 nM
O[C@H]1C[C@H](c2cn3cc(C4CC4)ccc3n2)N(c2cc(NCc3cc4cc[nH]c4cc3F)ncn2)C1 [Example 140, (3S,5R)-5-(6-cyclopropylimidazo[1,2-a]pyridin-2-yl)-1-(6-(((6-fluoro-1H-indol-5-yl)methyl)amino)pyrimidin-4-yl)pyrrolidin-3-ol] | 500 to 9000 nM
O=C(CCc1cccc(Cl)c1)Nc1cc(NCc2cn3cc(C4CC4)ccc3n2)ncn1 [Example 8, 3-(3-chlorophenyl)-N-(6-(((6-cyclopropylimidazo[1,2-a]pyridin-2-yl)methyl)amino)pyrimidin-4-yl)propanamide] | 500 to 9000 nM
COc1ccc(-n2cnnn2)c(CNc2cc(C(O)c3cn4cc(C5CC5)ccc4n3)ncn2)c1F (stereo not shown) [Example 63, (6-cyclopropylimidazo[1,2-a]pyridin-2-yl)(6-((2-fluoro-3-methoxy-6-(H-tetrazol-1-yl)benzyl)amino)pyrimidin-4-yl)methanol] | 5 to 50 nM
CC(=O)c1nc(NCc2cn3cc(C4CC4)ccc3n2)cc(NC(=O)Cc2ncn3ccc(Cl)cc23)n1 [Example 102, N-(2-acetyl-6-(((6-cyclopropylimidazo[1,2-a]pyridin-2-yl)methyl)amino)pyrimidin-4-yl)-2-(7-chloroimidazo[1,5-a]pyridin-1-yl)acetamide] | ≤ 5 nM
CC(C)(Cc1cc(C2CC2)cn2cc(CNc3cc(NC(=O)Cc4ncn5ccc(Cl)cc45)ncn3)nc12)C(=O)O [Example 40, 3-(2-(((6-(2-(7-chloroimidazo[1,5-a]pyridin-1-yl)acetamido)pyrimidin-4-yl)amino)methyl)-6-cyclopropylimidazo[1,2-a]pyridin-8-yl)-2,2-dimethylpropanoic acid] | ≤ 5 nM
CC(O)c1nc(NCc2cn3cc(C4CC4)ccc3n2)cc(NC(=O)Cc2ncn3ccc(Cl)cc23)n1 (stereo not shown) [Example 103, 2-(7-chloroimidazo[1,5-a]pyridin-1-yl)-N-(6-(((6-cyclopropylimidazo[1,2-a]pyridin-2-yl)methyl)amino)-2-(1-hydroxyethyl)pyrimidin-4-yl)acetamide] | ≤ 5 nM
O=C(Cc1cc(Cl)ccc1-c1nnn[nH]1)Nc1cc(NCc2cn3cc(C4CC4)ccc3n2)ncn1 [Example 10, 2-(5-chloro-2-(1H-tetrazol-5-yl)phenyl)-N-(6-(((6-cyclopropylimidazo[1,2-a]pyridin-2-yl)methyl)amino)pyrimidin-4-yl)acetamide] | > 9000 nM
O=C(Cc1ncn2ccc(Cl)cc12)Nc1cc(OCc2cn3cc(C4CC4)ccc3n2)cnn1 [Example 32, 2-(7-chloroimidazo[1,5-a]pyridin-1-yl)-N-(5-((6-cyclopropylimidazo[1,2-a]pyridin-2-yl)methoxy)pyridazin-3-yl)acetamide] | ≤ 5 nM
Nc1nccc2c1CC(C(=O)Nc1cc(NCc3cn4cc(C5CC5)ccc4n3)ccn1)C2 (stereo not shown) [Example 29, 1-amino-N-(4-(((6-cyclopropylimidazo[1,2-a]pyridin-2-yl)methyl)amino)pyridin-2-yl)-6,7-dihydro-5H-cyclopenta[c]pyridine-6-carboxamide] | 500 to 9000 nM
O=C(Cc1cc(Cl)ccc1-n1cnnn1)Nc1cc(NCc2cn3cc(C4CC4)ccc3n2)ncn1 [Example 35, 2-(5-chloro-2-(1H-tetrazol-1-yl)phenyl)-N-(6-(((6-cyclopropylimidazo[1,2-a]pyridin-2-yl)methyl)amino)pyrimidin-4-yl)acetamide] | 5 to 50 nM
Cc1cc(C(=N)N)cc(C)c1CNc1cc(OCc2cn3cc(C4CC4)ccc3n2)nc(-c2nn[nH]n2)n1 [Example 91, 4-(((6-((6-cyclopropylimidazo[1,2-a]pyridin-2-yl)methoxy)-2-(2H-tetrazol-5-yl)pyrimidin-4-yl)amino)methyl)-3,5-dimethylbenzimidamide] | ≤ 5 nM
O=C(Cc1cc(Cl)ccc1Br)Nc1cc(NCc2cn3cc(C4CC4)ccc3n2)ncn1 [Example 51, 2-(2-bromo-5-chlorophenyl)-N-(6-(((6-cyclopropylimidazo[1,2-a]pyridin-2-yl)methyl)amino)pyrimidin-4-yl)acetamide] | > 9000 nM
O=C(Cc1ncn2ccc(Cl)cc12)Nc1cc(NCc2cn3cc(C4CC4)ccc3n2)nc(C(=O)O)n1 [Example 21, 4-(2-(7-chloroimidazo[1,5-a]pyridin-1-yl)acetamido)-6-(((6-cyclopropylimidazo[1,2-a]pyridin-2-yl)methyl)amino)pyrimidine-2-carboxylic acid] | ≤ 5 nM
O=C(Cn1c(=O)oc2ccc(Cl)cc21)Nc1cc(NCc2cn3cc(C4CC4)ccc3n2)ncn1 [Example 123, 2-(5-chloro-2-oxobenzo[d]oxazol-3 (2H)-yl)-N-(6-(((6-cyclopropylimidazo[1,2-a]pyridin-2-yl)methyl)amino)pyrimidin-4-yl)acetamide] | 500 to 9000 nM
